Reference: PubChem BioAssay (NCI)
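Assay format: 96-well plates, 48-hour exposure. TGI is the concentration that stops growth completely.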

How the values were obtained:
Assay in all cases: inhibition of tumour cell growth, NCI panel, 48 h
[1] = test system: MOLT-4 leukemia
[2] = test system: HOP-92 NSCLC
[3] = test system: SK-OV-3 ovarian
[4] = test system: SNB-75 CNS
[5] = test system: COLO 205 colon
[6] = test system: OVCAR-3 ovarian
[7] = test system: HCT-15 colon
[8] = test system: ACHN renal
[9] = test system: MDA-N
[10] = test system: OVCAR-4 ovarian
[11] = test system: NCI-H460 lung
[12] = test system: RXF 393 renal
[13] = test system: NCI-H226 lung
[14] = test system: OVCAR-5 ovarian
[15] = test system: OVCAR-8 ovarian
[16] = test system: SW-620 colon
[17] = test system: M14 melanoma
[18] = test system: BT-549 breast
[19] = test system: UACC-62 melanoma

Structure (SMILES) | TGI [1] [µM] | TGI [2] [µM] | TGI [3] [µM] | TGI [4] [µM] | TGI [5] [µM] | TGI [6] [µM] | TGI [7] [µM] | TGI [8] [µM] | TGI [9] [µM] | TGI [10] [µM] | TGI [11] [µM] | TGI [12] [µM] | TGI [13] [µM] | TGI [14] [µM] | TGI [15] [µM] | TGI [16] [µM] | TGI [17] [µM] | TGI [18] [µM] | TGI [19] [µM]
CCOC(=O)C(NC(C)=O)(Nc1ccc(S(N)(=O)=O)cc1)C(F)(F)F (stereo not drawn) | > 100 | > 100 | > 100 | > 100 | > 100 | > 100 | > 100 | > 100 | > 100 | > 100 | > 100 | > 100 | > 100 | > 100 | > 100 | > 100 | > 100 |  | 
CC(=O)c1cc2c(s1)C(=O)c1sccc1C2=O | 0.292 | 0.746 | 3.2 | 0.0491 | 2.63 | 0.0382 | 0.0534 |  |  | 0.195 | 0.211 | 0.0919 | 0.407 | 0.158 | 0.227 | 0.28 |  | 0.0321 | 0.0898
CCOc1cn(C2OC(CO)C(O)C2O)c(=O)[nH]c1=O (stereo not drawn) | > 100 | > 100 | > 100 | > 100 | > 100 | > 100 | > 100 | > 100 |  |  | > 100 | > 100 | > 100 | > 100 | > 100 | 89.5 | > 100 |  | > 100
O=C1Cc2nc(CO)c(CO)c(CO)c2CO1 |  | > 100 | > 100 | > 100 | > 100 | > 100 | > 100 | > 100 |  |  | > 100 |  |  | > 100 | > 100 | > 100 | > 100 |  | > 100
CN(C)C=Nc1c2ccccc2nc2ccccc12 | 9.05 | 22.3 | 23.4 | 13.6 | 8.87 | 13.4 | 32.8 | 34 |  | 21.1 |  | 16.4 | 9.06 | 32.8 | 18.3 |  | 16.2 | 13.2 | 7.65
CCOC(=O)C1=C(C)NC2=C(C(=O)N(c3ccccc3)C2c2ccccc2)C1c1ccccc1 (stereo not drawn) | 56.2 | 25.8 | 31.4 | 26.6 | 33.5 | 25.4 | 32.2 | 27 |  |  |  |  | 37.1 | 29.8 | 53.4 | 47.5 | 32.1 |  | 26.7
CSc1ccc2c(cc1=O)[C@@H](NC(=O)c1ccc(Cl)cc1)CCc1cc(O)c(O)c(O)c1-2 | > 100 | > 100 | > 100 | > 100 | > 100 | 56.5 | 51.7 | > 100 |  | 82 | > 100 | > 100 | > 100 | > 100 | > 100 | 37.1 | > 100 |  | 68.1
COC1(C)C(=O)N2C1N(C(=O)OC(C)(C)C)CC2(C)C (stereo not drawn) | > 100 | > 100 | > 100 | > 100 | > 100 | > 100 | > 100 | > 100 |  | > 100 | > 100 | > 100 | > 100 | > 100 | > 100 | 37.5 | > 100 |  | > 100
CNC1c2ccccc2C(=O)c2cc3c(cc21)OCCOCCOCCOCCO3 (stereo not drawn) | 92.2 |  | > 100 | > 100 | > 100 |  | > 100 | > 100 | > 100 | > 100 | > 100 |  |  | > 100 | > 100 | > 100 | > 100 |  | 
COc1ccc(C2ON(c3ccccc3)CC=C2C)cc1 (stereo not drawn) | > 100 |  | > 100 | > 100 | > 100 | > 100 | > 100 | > 100 |  | > 100 | > 100 | > 100 | > 100 | > 100 | > 100 | > 100 | > 100 |  | > 100
CNC(=O)C1(C#N)C(c2ccccc2)C(C#N)(C(=O)NC)C1c1ccccc1 (stereo not drawn) | > 100 | > 100 | > 100 | > 100 | > 100 | > 100 | > 100 | > 100 | > 100 | > 100 | > 100 |  | > 100 | > 100 | > 100 | > 100 | > 100 |  | 
Cc1ccc(S(=O)(=O)N2CCN(C=S)CC2)cc1 | > 100 |  | > 100 | > 100 | > 100 | > 100 | > 100 | > 100 |  |  | > 100 | > 100 |  | > 100 | > 100 | > 100 | > 100 |  | > 100
C=C(C)[C@@H]1CCC2=C[C@H](C/C(C)=C\C3=CC(C)=C(O3)[C@H]1O)OC2=O | > 100 | > 100 |  | > 100 | > 100 | > 100 | > 100 | > 100 |  | > 100 | > 100 | > 100 | > 100 | > 100 | > 100 | > 100 | > 100 | > 100 | > 100
COc1ccc(N2C(=O)C3c4[nH]c5ccccc5c4C4CC(C)(C)CC(C)(C)C4C3C2=O)cc1 (stereo not drawn) | 36.6 | 28.7 | 38.2 | 34.5 | 34.8 |  | > 100 | 31.9 |  | 26.2 |  | 33.1 | 29.3 |  | 11.1 | 71.7 | 41.8 |  | 27.6
N#CC(C#N)=C/C=C/c1c(Cl)cccc1Cl | 9.01 | 4.8 | 5.64 | > 10 | 3.17 | 5.67 | 4.01 | 3.19 | 3.23 | 3.49 | 4.08 | 2.97 | 7.05 |  | 3.48 | 4.21 | 3.06 |  | 2.91
